Assay results reported in US5780433A (priority 1996, dated 1998).
pEC50, pIC50: −log10 of the molar value. Values joined by “and” are separate entries in the source; they are usually repeats but may differ in a detail not shown here. Equal entries are not always repeated. “Also recorded” adds a separate entry of the source.

What was measured:
[1] = test system: nicotine-stimulated [3H]-dopamine release from rat striatal synaptosomes; format: cell-based
[2] = test system: nicotine-stimulated norepinephrine release, hippocampal synaptosomes; details: cited from earlier work
[3] = test system: norepinephrine release, hippocampal slice preparations; details: cited from earlier work
[4] = test system: nicotine-stimulated [3H]-dopamine release from rat striatal synaptosomes; details: read-out: EC50, increase of [3H]-dopamine release; cited from earlier work
[5] = test system: nicotine-stimulated norepinephrine release, hippocampal synaptosomes; format: cell-based, rat
[6] = test system: other nAChR subunit combinations (α7, α4β2, α2β2, α3β4, α1β1δγ, α4β4); details: cited from earlier work
[7] = biological target: α3β2 nAChRs expressed in Xenopus oocytes (Rattus norvegicus, UniProt P04757+P12390); details: read-out: IC50, block of α3β2 nAChRs; cited from earlier work
[8] = test system: potassium-stimulated dopamine release; format: cell-based, rat

Sequence of α3β2 nAChRs expressed in Xenopus oocytes (P04757 26-499 limits assumed): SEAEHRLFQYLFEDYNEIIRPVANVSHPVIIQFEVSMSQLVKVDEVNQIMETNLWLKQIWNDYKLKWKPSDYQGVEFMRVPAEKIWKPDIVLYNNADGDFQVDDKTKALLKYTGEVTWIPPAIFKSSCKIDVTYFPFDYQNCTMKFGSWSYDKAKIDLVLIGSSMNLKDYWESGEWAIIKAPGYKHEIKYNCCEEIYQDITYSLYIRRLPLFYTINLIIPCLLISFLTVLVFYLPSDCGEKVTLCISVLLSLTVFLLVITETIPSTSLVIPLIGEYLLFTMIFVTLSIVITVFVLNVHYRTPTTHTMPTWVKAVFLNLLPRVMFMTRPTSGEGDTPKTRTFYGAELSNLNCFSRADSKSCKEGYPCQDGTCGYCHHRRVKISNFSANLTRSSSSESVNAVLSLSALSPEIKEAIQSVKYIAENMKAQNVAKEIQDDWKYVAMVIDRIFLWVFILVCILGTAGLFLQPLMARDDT
Sequence of α3β2 nAChRs expressed in Xenopus oocytes (P12390 25-500 limits assumed): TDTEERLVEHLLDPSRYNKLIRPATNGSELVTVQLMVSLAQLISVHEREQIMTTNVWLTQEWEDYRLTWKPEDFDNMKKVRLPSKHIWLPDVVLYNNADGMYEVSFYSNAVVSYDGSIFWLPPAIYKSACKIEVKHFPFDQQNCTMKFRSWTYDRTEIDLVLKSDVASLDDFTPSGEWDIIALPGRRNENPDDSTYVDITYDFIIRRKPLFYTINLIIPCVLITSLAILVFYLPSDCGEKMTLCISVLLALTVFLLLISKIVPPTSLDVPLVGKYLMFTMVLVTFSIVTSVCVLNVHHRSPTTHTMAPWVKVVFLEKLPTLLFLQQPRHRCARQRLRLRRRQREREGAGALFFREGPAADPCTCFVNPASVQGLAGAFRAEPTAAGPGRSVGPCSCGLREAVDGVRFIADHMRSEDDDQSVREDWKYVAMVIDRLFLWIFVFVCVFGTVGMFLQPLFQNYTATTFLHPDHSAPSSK

With `CNC1(C)C2CCC(C2)C1(C)C` (centres unmarked) [mecamylamine, reference compound] the “block of nicotine-stimulated dopamine release” value [1] was “fully blocked”.
For α-conotoxin ImI [reference compound], the “block of nicotine-stimulated dopamine release” value [1] was “do not block; also recorded: no effect”.
For `CN1CCCC1c1cccnc1.O=C(O)C(O)C(O)C(=O)O` (single isomer, unassigned; (-)) [nicotine, (-)Nicotine hydrogen tartrate], the pEC50 [2] is listed as 5.19, the “norepinephrine release over baseline” value [3] is listed as ~ 700% and the pEC50 [4] is listed as 6.80.
In the case of α-conotoxin MII, the “block of nicotine-stimulated norepinephrine release” value [5] is given as “significant block”, the “block of nicotine-stimulated synaptosomal norepinephrine release” value [5] is given as “do not block” and the “affinities for other nAChR subunit combinations relative to α3β2” value [6] is given as “two to four orders-of-magnitude higher”. The “discrimination between the α3/β2 and α3/β4 interface” value [6] was “four orders-of-magnitude”, the pIC50 [7] was 9.30 and the “effect on potassium-stimulated dopamine release” value [8] was “no effect”. The “block of nicotine-evoked [3H]-dopamine release” value [1] was “significantly blocked”, the “block of nicotine-stimulated [3H]-dopamine release” value [1] was 33% and 34% and 44% and 50% and the “block of nicotine-stimulated [3H]-dopamine release (words)” value [1] was “nonsignificant trend toward block”. The “block of nicotine-stimulated dopamine release” value [1] was “blocks a fraction; also recorded: blocks a part but not all”.
In the case of `NC1=N[C@H](O)[C@H]2[C@H]3O[C@]4(O)O[C@@H]([C@@H](O)[C@@]2(N1)[C@@H]4O)[C@]3(O)CO` [tetrodotoxin], the “effect on nicotine-stimulated synaptosomal release of norepinephrine” value [2] is given as “not affected” and the “block of nicotine-stimulated norepinephrine release from hippocampal slices” value [3] is given as “majority”.
